From patent US4594348A, “Use of some 2-[2-[4-phenyl-1-piperazinyl]ethyl]-1H-naphth-[1,2-D]imidazole derivatives and their pharmaceutically acceptable salts in the treatment of cardiovascular diseases” (Gruppo Lepetit S.p.A., priority 1984, dated 1986)

Key:
[1] = system: conscious normotensive dogs; assay: Blood pressure in conscious normotensive dogs (oral); type: in vivo, dog (mongrel); details: for % systolic blood pressure variation: Table II, oral; for Mean systolic blood pressure / % Δ of mean systolic blood pressure: Table V, single oral 20 mg/kg
Method: (§1) As for the experiments with conscious normotensive dogs, mongrel dogs with incannulated abdominal aorta or with incannulated abdominal aorta and cardiac left ventricle were used. The compounds were administered by oral route as powder in gelatine capsules. Mean blood pressure (M.B.P.) was registered directly using a Bentley pressure transducer.

mice = assay: "running-fit" test (antagonism of the effects of morphine); type: in vivo, mouse; details: morphine 60 mg/Kg s.c.
Method: This test is conducted essentially as described in the literature.

[2] = Acute toxicity (LD50) in mice; details: mouse, in vivo
Method: The LD50 values of the compounds of the invention are generally higher than 500 mg/kg when given per os and generally higher than 200-300 mg/kg when given intraperitoneally to mice. In particular, the approximate LD50 values for compound 3 in mice were 1000 mg/kg after oral administration and 600 mg/kg after i.p. administration. […] Representative experiments were conducted essentially as described by B. N. Ames, J. McCann., E. Yamasaki, "Methods for detecting carcinogens and mutagens with the salmonella/microsome mutagenicy test" in Mutation Research, 31, 347-364, (1975).

renal hypertensive dogs [3] = assay: CNS depressant effect and tachycardia during prolonged (7-day) treatment in dogs; type: in vivo, dog; details: per os 10 mg/kg/die, 7 days
renal hypertensive dogs [4] = assay: Tachiphylaxis experiment: daily oral administration for 7 consecutive days, systolic blood pressure; type: in vivo, dog; details: for % Δ of S.B.P., peak effect (7h) / S.B.P., basal value / S.B.P., peak effect (7h) / % Δ of S.B.P., basal value: Table IV, 10 mg/kg/die per os
[5] = system: conscious renal hypertensive dogs; assay: Systolic blood pressure in conscious renal hypertensive dogs (oral, Goldblatt's method); type: in vivo, dog (mongrel); details: for % systolic pressure variation: Table I; for % Δ (% variation of the S.B.P. over the basal value) / S.B.P. (systolic blood pressure): Table III; for S.B.P. (systolic blood pressure): mean ± SE
Method: The experiments herein described which use renal hypertensive dogs are conducted essentially as described in the above cited text.
(§2) More particularly, in the experiments with conscious renal hypertensive dogs, mongrel dogs with two clips on the renal arteries were used according to the Goldblatt's method. The compounds were administered by oral route as powder in gelatine capsules. Systolic blood pressure (SBP) was registered at the tail (indirect method).
^a S.B.P. = Systolic blood pressure. It is determined after oral
administration where three animals were employed for each dose. It is
expressed in mmHg as mean value ± SE.
^b % Δ = % variation of the S.B.P. over the basal value (time
0) at the indicated time after administration.

renal hypertensive dogs [6] = assay: Heart rate in renal hypertensive dogs; type: in vivo, dog (mongrel); details: experiments of Table III, oral
Method: as §2

mongrel dogs [7] = details: dog, in vivo
mongrel dogs [8] = assay: CNS-depressant activity in mongrel dogs (oral); details: 100 mg/kg
[9] = system: conscious normotensive dogs; assay: Myocardial contractility in conscious normotensive dogs; type: in vivo, dog (mongrel); details: single oral 20 mg/kg; for Myocardial contractility / % Δ of myocardial contractility: Table V
Method: as §1
Myocardial contractility was calculated as
1/P·dp/dt ^(max)
The results of this experiment, which was conducted after a single oral administration of 20 mg/kg of the test compound, are summarized below: […]

Beagle dogs = details: dog, in vivo, po

CC(C)n1c(CCN2CCN(c3cccc(C(F)(F)F)c3)CC2)nc2ccc3ccccc3c21.O=C(O)CC(O)(CC(=O)O)C(=O)O [Compound 3, 2-[2-[4-(3-trifluoromethylphenyl)-1-piperazinyl]ethyl]-1-(1-methylethyl)-1H-naphth[1,2-d]imidazole, 2-hydroxy-1,2,3-propantricarboxylate]
% systolic blood pressure variation ([1]; 10 mg/kg): -16%
% systolic blood pressure variation ([1]; 20 mg/kg): -15%
Mean systolic blood pressure ([1]; 0 min (basal)): 120 mmHg
% Δ of mean systolic blood pressure ([1]; 60 min): -0%
Mean systolic blood pressure ([1]; 60 min): 120 mmHg
% Δ of mean systolic blood pressure ([1]; 120 min): -12%
Mean systolic blood pressure ([1]; 120 min): 106 mmHg
% Δ of mean systolic blood pressure ([1]; 180 min): -15%
Mean systolic blood pressure ([1]; 180 min): 102 mmHg
% Δ of mean systolic blood pressure ([1]; 300 min): -17%
Mean systolic blood pressure ([1]; 300 min): 100 mmHg
% Δ of mean systolic blood pressure ([1]; 360 min): -12%
Mean systolic blood pressure ([1]; 360 min): 106 mmHg
antagonism of morphine in "running-fit" test (mice; 30 mg i.p.): inactive
antagonism of morphine in "running-fit" test (mice; 60 mg per os): inactive
LD50 ([2]; ip, intraperitoneal): ~600 mg/kg
LD50 ([2]; po, per os): ~1000 mg/kg
CNS depressant effect during the prolonged treatment (renal hypertensive dogs [3]): no tachycardia or CNS depressant effect was observed
tachycardia during the prolonged treatment (renal hypertensive dogs [3]): no tachycardia
% Δ of S.B.P., peak effect (7h) (renal hypertensive dogs [4]; day 1 of treatment): -20%
S.B.P., basal value (renal hypertensive dogs [4]; day 1 of treatment): 210 mmHg
S.B.P., peak effect (7h) (renal hypertensive dogs [4]; day 1 of treatment): 170 mmHg
% Δ of S.B.P., basal value (renal hypertensive dogs [4]; day 3 of treatment): -5%
% Δ of S.B.P., peak effect (7h) (renal hypertensive dogs [4]; day 3 of treatment): -20%
S.B.P., basal value (renal hypertensive dogs [4]; day 3 of treatment): 200 mmHg
S.B.P., peak effect (7h) (renal hypertensive dogs [4]; day 3 of treatment): 170 mmHg
% Δ of S.B.P., basal value (renal hypertensive dogs [4]; day 5 of treatment): -12%
% Δ of S.B.P., peak effect (7h) (renal hypertensive dogs [4]; day 5 of treatment): -24%
S.B.P., basal value (renal hypertensive dogs [4]; day 5 of treatment): 185 mmHg
S.B.P., peak effect (7h) (renal hypertensive dogs [4]; day 5 of treatment): 160 mmHg
% Δ of S.B.P., basal value (renal hypertensive dogs [4]; day 7 of treatment): -15%
% Δ of S.B.P., peak effect (7h) (renal hypertensive dogs [4]; day 7 of treatment): -29%
S.B.P., basal value (renal hypertensive dogs [4]; day 7 of treatment): 180 mmHg
S.B.P., peak effect (7h) (renal hypertensive dogs [4]; day 7 of treatment): 150 mmHg
tachiphylaxis (renal hypertensive dogs [4]; per os daily for 7 consecutive days, 10 mg/kg/die): proved not to induce tachiphylaxis
minimal effective dose ([5]; Canis lupus familiaris, po, read-out: dose active in reducing the systolic blood pressure): ≤ 5 mg/kg
% systolic pressure variation ([5]; renal hypertensive dogs, oral, 20 mg/kg): -24%
% systolic pressure variation ([5]; renal hypertensive dogs, oral, 30 mg/kg): -20%
% Δ (% variation of the S.B.P. over the basal value) ([5]; oral 5 mg/kg, 1 h): -3%
S.B.P. (systolic blood pressure) ([5]; oral 5 mg/kg, 1 h): 205 ± 5 mmHg
% Δ (% variation of the S.B.P. over the basal value) ([5]; oral 5 mg/kg, 3 h): -10%
S.B.P. (systolic blood pressure) ([5]; oral 5 mg/kg, 3 h): 190 ± 5 mmHg
% Δ (% variation of the S.B.P. over the basal value) ([5]; oral 5 mg/kg, 5 h): -12%
S.B.P. (systolic blood pressure) ([5]; oral 5 mg/kg, 5 h): 185 ± 7 mmHg
% Δ (% variation of the S.B.P. over the basal value) ([5]; oral 5 mg/kg, 7 h): -10%
S.B.P. (systolic blood pressure) ([5]; oral 5 mg/kg, 7 h): 190 ± 4 mmHg
S.B.P. (systolic blood pressure) ([5]; oral 5 mg/kg, time 0 h (basal value), 3 animals): 210 ± 7 mmHg
% Δ (% variation of the S.B.P. over the basal value) ([5]; oral 10 mg/kg, 1 h): -8%
S.B.P. (systolic blood pressure) ([5]; oral 10 mg/kg, 1 h): 190 ± 4 mmHg
% Δ (% variation of the S.B.P. over the basal value) ([5]; oral 10 mg/kg, 3 h): -13%
S.B.P. (systolic blood pressure) ([5]; oral 10 mg/kg, 3 h): 180 ± 7 mmHg
% Δ (% variation of the S.B.P. over the basal value) ([5]; oral 10 mg/kg, 5 h): -22%
S.B.P. (systolic blood pressure) ([5]; oral 10 mg/kg, 5 h): 160 ± 10 mmHg
% Δ (% variation of the S.B.P. over the basal value) ([5]; oral 10 mg/kg, 7 h): -18%
S.B.P. (systolic blood pressure) ([5]; oral 10 mg/kg, 7 h): 170 ± 8 mmHg
S.B.P. (systolic blood pressure) ([5]; oral 10 mg/kg, time 0 h (basal value)): 205 ± 7 mmHg
% Δ (% variation of the S.B.P. over the basal value) ([5]; oral 20 mg/kg, 1 h): -8%
S.B.P. (systolic blood pressure) ([5]; oral 20 mg/kg, 1 h): 175 ± 7 mmHg
% Δ (% variation of the S.B.P. over the basal value) ([5]; oral 20 mg/kg, 3 h): -14%
S.B.P. (systolic blood pressure) ([5]; oral 20 mg/kg, 3 h): 165 ± 8 mmHg
% Δ (% variation of the S.B.P. over the basal value) ([5]; oral 20 mg/kg, 5 h): -27%
S.B.P. (systolic blood pressure) ([5]; oral 20 mg/kg, 5 h): 140 ± 7 mmHg
% Δ (% variation of the S.B.P. over the basal value) ([5]; oral 20 mg/kg, 7 h): -32%
S.B.P. (systolic blood pressure) ([5]; oral 20 mg/kg, 7 h): 130 ± 7 mmHg
S.B.P. (systolic blood pressure) ([5]; oral 20 mg/kg, time 0 h (basal value)): 190 ± 8 mmHg
duration of the reduction of the blood pressure ([5]; renal hypertensive dogs, oral): still present seven hours after administration
heart rate (renal hypertensive dogs [6]): no increase in the heart rate was observed but only a slight and transient decrease
dose beginning CNS-depressant activity relative to effective antihypertensive dose (mongrel dogs [7]): at least about ten times higher
dose at which signs of CNS-depression begin (mongrel dogs [7]; po): 100 mg/kg
signs of CNS-depression (mongrel dogs [8]): slight sedation and very slight motor incoordination
Myocardial contractility ([9]; 0 min (basal)): 48 mmHg sec^-1
% Δ of myocardial contractility ([9]; 60 min): +10%
Myocardial contractility ([9]; 60 min): 53 mmHg sec^-1
% Δ of myocardial contractility ([9]; 120 min): +12%
Myocardial contractility ([9]; 120 min): 54 mmHg sec^-1
% Δ of myocardial contractility ([9]; 180 min): +10%
Myocardial contractility ([9]; 180 min): 53 mmHg sec^-1
% Δ of myocardial contractility ([9]; 300 min): +12%
Myocardial contractility ([9]; 300 min): 54 mmHg sec^-1
% Δ of myocardial contractility ([9]; 360 min): +6%
Myocardial contractility ([9]; 360 min): 51 mmHg sec^-1
effect on myocardial contractility (in words) ([9]; conscious normotensive dogs): proved not to reduce the myocardial contractility
dose at which CNS-depressant effects begin (Beagle dogs): higher than 100 mg/kg
